Test results as given in ChEMBL document CHEMBL1146985, “Investigation of the mechanism of action of 3-(4-bromophenyl)-5-acyloxymethyl-2,5-dihydrofuran-2-one against Candida albicans by flow cytometry” (Bioorg Med Chem Lett, 2006).
The source made the active and inactive calls. No cut-off for these calls is given here.

Tests used:
Candida albicans [1] = test: Antifungal activity against Candida albicans ATCC 90028 at 10 ug/ml; type: functional, organism-based
Candida albicans [2] = test: Antifungal activity against Candida albicans ATCC 90028 at 100 ug/ml; type: functional, organism-based

SMILES | Activity (Candida albicans [1]) | Activity (Candida albicans [2])
CC(=O)OCC1C=C(c2ccc(Br)cc2)C(=O)O1 (configuration not stated) | Active | 
O=C1OC(CO)C=C1c1ccc(Br)cc1 (configuration not stated) |  | Active
